Laboratory results from patent US20090181948A1, “DIAMINE DERIVATIVE” (KYOWA HAKKO KOGYO CO., LTD., priority 2005, published 2009).

What follows are compounds tested against T1, histamine H3 receptor (Rattus norvegicus, UniProt Q9QYN8) (assay: Histamine H3 receptor binding assay ([3H]-Nα-methylhistamine binding to rat striatum homogenate)). Conditions: 1 μmol/L test compound; [3H]-Nα-methylhistamine 1 nmol/L; striata of Sprague-Dawley male rats, 25° C., 1 hour; read-out: Inhibition ratio of [3H]-Nα-methylhistamine binding.
T1 construct: from tissue; host or cells: rat striatum (Sprague-Dawley, male, 6 weeks), membrane homogenate
T1 sequence (Q9QYN8 whole entry): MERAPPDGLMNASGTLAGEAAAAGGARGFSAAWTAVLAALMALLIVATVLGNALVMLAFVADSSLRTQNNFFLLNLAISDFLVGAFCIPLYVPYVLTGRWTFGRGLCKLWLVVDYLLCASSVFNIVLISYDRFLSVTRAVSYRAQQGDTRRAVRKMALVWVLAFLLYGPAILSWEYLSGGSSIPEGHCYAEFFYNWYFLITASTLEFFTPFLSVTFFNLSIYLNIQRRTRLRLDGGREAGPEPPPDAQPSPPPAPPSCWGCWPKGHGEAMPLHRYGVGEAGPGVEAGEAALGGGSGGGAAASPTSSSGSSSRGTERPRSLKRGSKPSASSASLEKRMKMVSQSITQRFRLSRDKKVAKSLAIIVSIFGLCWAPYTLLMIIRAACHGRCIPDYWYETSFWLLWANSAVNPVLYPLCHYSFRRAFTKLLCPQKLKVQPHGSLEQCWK
Procedure: To the striata of Sprague-Dawley male rats (6 weeks of age), a 10-fold volume of lysis buffer {50 mmol/L [[…] (Tris)]/HCl (pH 7.4), 5 mmol/L ethylenediaminetetraacetic acid (EDTA), a protease inhibitor mixture [1 mg/mL phenylmethylsulfonyl fluoride (PMSF), 1 μg/mL pepstatin A, 1 μg/mL leupeptin, 1 μg/mL chymostatin]} was added and the striata were homogenized. The resulting homogenate was centrifuged (30,000×g, 4° C., 30 min), and the obtained precipitate was resuspended in a 10-fold volume of lysis buffer, followed by centrifugation under the same condition. To the obtained precipitate, a 3-fold volume of lysis buffer was added to suspend the precipitate, and the resulting tissue homogenate was used for a test.
A test compound was dissolved in an assay buffer [50 mmol/L Tris/HCl (pH 7.4), 5 mmol/L EDTA], and [^3H]-N^α-methylhistamine (1 nmol/L) and the tissue homogenate (20 μg, in terms of protein amount) were added thereto, and then, the mixture was incubated at 25° C. for 1 hour. Then, the reaction was terminated by rapid suction filtration on a glass filter [GF/B: Whatman, previously soaked in 0.3 w/v % polyethylenimine for about 30 min]. Then, the glass filter was washed three times with 3 mL of assay buffer. This glass filter was transferred into a scintillation vial and dried at 60° C. for 30 minutes. Then, 0.5 mL of Ultimagold (Perkin Elmer) was added thereto, and the radioactivity (binding amount of [^3H]-N^α-methylhistamine) was measured using a liquid scintillation counter. The obtained value was used as a binding amount in the presence of the test compound. The same procedure as described above was carried out in the absence of the test compound, and the binding amount of [^3H]-N^α-methylhistamine obtained at this time was used as a binding amount in the absence of the test compound. Further, the binding amount of [^3H]-N^α-methylhistamine obtained in the presence of 10 μmol/L thioperamide was used as a non-specific binding amount. An inhibitory action of [^3H]-N^α-methylhistamine binding was represented by an inhibition ratio in terms of 1 μmol/L of the test compound calculated by the following Equation (1).
Inhibition ratio(%)={1−[(Binding amount in the presence of test compound)−(Non-specific binding amount)]/[(Binding amount in the absence of test compound)−(Non-specific binding amount)]}×100 (1)
`CC1CCCN1CCCN1CCN(CCCN2CCCC2C)C1=NC#N` (stereo not shown) [Compound 140, 1,3-Bis[3-(2-methylpyrrolidin-1-yl)propyl]imidazolidin-2-ylidenecyanoamide Difumarate] was tested, and the inhibition at 1 µM was at least 80%.
With `CC1CC(C)CN(CCCN2CCN(CCCN3CCCC3)C2=C(C#N)C#N)C1` (stereo not shown) [Compound 96, {1-[3-(3,5-Dimethylpiperidino)propyl]-3-[3-(pyrrolidin-1-yl)propyl]imidazolidin-2-ylidene}malononitrile] the inhibition at 1 µM was at least 80%.
In the case of `CC1CCCCN1CCCN1CCN(CCCN2CC=CCC2)C1=C(C#N)C#N` (stereo not shown) [Compound 86, {1-[3-(1,2,3,6-Tetrahydropyridin-1-yl)propyl]-3-[3-(2-methylpiperidino)propyl]imidazolidin-2-ylidene}malononitrile], the inhibition at 1 µM is reported as at least 80%.
`N#CC(C#N)=C(NCCCN1CCCCC1)N1CCC(CN2CCCCC2)CC1` [Compound 172, [(4-Piperidinomethylpiperidino)(3-piperidinopropylamino)methylene]malononitrile] showed an inhibition at 1 µM of at least 80%.
`N#CC(C#N)=C1N(CCCNC2CCCCC2)CCN1CCN1CCCCC1` [Compound 62, [1-(3-Cyclohexylaminopropyl)-3-(2-piperidinoethyl)imidazolidin-2-ylidene]malononitrile] gave an inhibition at 1 µM of at least 80%.
For `N#CC(C#N)=C1N(CCCN2CCCC2)CCN1CCCN1CCOCC1` [Compound 82, {1-(3-Morpholinopropyl)-3-[3-(pyrrolidin-1-yl)propyl]imidazolidin-2-ylidene}malononitrile], the inhibition at 1 µM was at least 80%.
`C[C@@H]1CCCN1CCCN1CCN(CCCN2CCC[C@H]2C)C1=C(C#N)C#N` [Compound 116, {1,3-Bis[3-((R)-2-methylpyrrolidin-1-yl)propyl]imidazolidin-2-ylidene}malononitrile Difumarate] gave an inhibition at 1 µM of at least 80%.
`C[C@@H]1CCC[C@H](C)N1CCCN1CCN(CCN2CCCCC2)C1=C(C#N)C#N` [Compound 50, {1-[3-(Cis-2,6-dimethylpiperidino)propyl]-3-(2-piperidinoethyl)imidazolidin-2-ylidene}malononitrile Difumarate] showed an inhibition at 1 µM of at least 80%.
In the case of `CC1CC(C)CN(CCCN2CCN(CCCN3C(C)CCCC3C)C2=C(C#N)C#N)C1` (stereo not shown) [Compound 108, {1-[3-(2,6-Dimethylpiperidino)propyl]-3-[3-(3,5-dimethylpiperidino)propyl]imidazolidin-2-ylidene}malononitrile], the inhibition at 1 µM is reported as at least 80%.
For `CC1CC(C)CN(CCCN2CCN(CCCN3CCCCC3C)C2=C(C#N)C#N)C1` (stereo not shown) [Compound 104, {1-[3-(3,5-Dimethylpiperidino)propyl]-3-[3-(2-methylpiperidino)propyl]imidazolidin-2-ylidene}malononitrile], the inhibition at 1 µM was at least 80%.
With `CC1CCCN(CCCN2CCN(CCCN3CC(C)CC(C)C3)C2=C(C#N)C#N)C1` (stereo not shown) [Compound 105, {1-[3-(3,5-Dimethylpiperidino)propyl]-3-[3-(3-methylpiperidino)propyl]imidazolidin-2-ylidene}malononitrile] the inhibition at 1 µM was at least 80%.
`CC1CCCCN1CCCN1CCN(CCCN2CCCC2)C1=C(C#N)C#N` (stereo not shown) [Compound 93, {1-[3-(2-Methylpiperidino)propyl]-3-[3-(pyrrolidin-1-yl)propyl]imidazolidin-2-ylidene}malononitrile] gave an inhibition at 1 µM of at least 80%.
Work on `CC(C)N1CCC(CN2CCN(CC3CCN(C(C)C)CC3)C2=C(C#N)C#N)CC1` [Compound 134, [1,3-Bis(1-isopropylpiperidin-4-ylmethyl)imidazolidin-2-ylidene]malononitrile] yielded an inhibition at 1 µM of at least 80%.
In the case of `N#CC(C#N)=C1N(CCCN2CCCCC2)CCN1CCNC1CCCCC1` [Compound 63, [1-(2-Cyclohexylaminoethyl)-3-(3-piperidinopropyl)imidazolidin-2-ylidene]malononitrile Difumarate], the inhibition at 1 µM is reported as at least 80%.
`N#CC(C#N)=C1N(CCCN2CCCCC2)CCN1CCCN1CCCC1` [Compound 95, {1-(3-Piperidinopropyl)-3-[3-(pyrrolidin-1-yl)propyl]imidazolidin-2-ylidene}malononitrile] was tested, and the inhibition at 1 µM was at least 80%.
For `CC1CCCN1CCCN1CCN(CCCN2CCN(C)CC2)C1=C(C#N)C#N` (stereo not shown) [Compound 78, {1-[3-(4-Methylpiperazin-1-yl)propyl]-3-[3-(2-methylpyrrolidin-1-yl)propyl]imidazolidin-2-ylidene}malononitrile], the inhibition at 1 µM was at least 80%.
`CC1CCCN(CCCN2CCN(CCCN3CCCCC3)C2=C(C#N)C#N)C1` (stereo not shown) [Compound 99, {1-[3-(3-Methylpiperidino)propyl]-3-(3-piperidinopropyl)imidazolidin-2-ylidene}malononitrile] gave an inhibition at 1 µM of at least 80%.
With `CC1CCCN1CCCN1CCN(CCN2C[C@H](C)C[C@H](C)C2)C1=C(C#N)C#N` (relative stereo) [Compound 20, {1-[2-(Cis-3,5-dimethylpiperidino)ethyl]-3-[3-(2-methylpyrrolidin-1-yl)propyl]imidazolidin-2-ylidene}malononitrile] the inhibition at 1 µM was at least 80%.
`N#CC(C#N)=C1N(CCCN2CC=CCC2)CCN1CCCN1CC=CCC1` [Compound 88, {1,3-bis[3-(1,2,3,6-Tetrahydropyridin-1-yl)propyl]imidazolidin-2-ylidene}malononitrile] gave an inhibition at 1 µM of at least 80%.
`CCN(CC)CCCN1CCN(CCN2CCCCC2)C1=C(C#N)C#N` [Compound 48, [1-(3-Diethylaminopropyl)-3-(2-piperidinoethyl)imidazolidin-2-ylidene]malononitrile] showed an inhibition at 1 µM of at least 80%.
Compound `CC(C)N1CCC(N2CCN(CCC3CCCN3C)C2=C(C#N)C#N)CC1` (stereo not shown) [Compound 187, {1-(1-Isopropylpiperidin-4-yl)-3-[2-(1-methylpyrrolidin-2-yl)ethyl]imidazolidin-2-ylidene}malononitrile] has an inhibition at 1 µM of at least 80%.
In the case of `C[C@@H]1CCCN1CCCCN1CCN(CCN2CCC[C@H]2C)C1=C(C#N)C#N` [Compound 191, {1-[4-((R)-2-methylpyrrolidin-1-yl)butyl]-3-[2-((R)-2-methylpyrrolidin-1-yl)ethyl]imidazolidin-2-ylidene}malononitrile], the inhibition at 1 µM is reported as at least 80%.
`N#CC(C#N)=C1N(CCCN2CCCCCC2)CCN1CCN1CCCCC1` [Compound 46, {1-[3-(Azepan-1-yl)propyl]-3-(2-piperidinoethyl)imidazolidin-2-ylidene}malononitrile] showed an inhibition at 1 µM of at least 80%.
In the case of `N#CC(C#N)=C1N(CCCN2CCC(C#N)CC2)CCN1CCN1CCCCC1` [Compound 40, {1-[3-(4-Cyanopiperidino)propyl]-3-(2-piperidinoethyl)imidazolidin-2-ylidene}malononitrile], the inhibition at 1 µM is reported as at least 80%.
`N#CN=C1N(CCCN2CCCCC2)CCN1CCCN1CCCCC1` [Compound 139, 1,3-Bis(3-piperidinopropyl)imidazolidin-2-ylidene Cyanoamide Difumarate] gave an inhibition at 1 µM of at least 80%.
`CN(CCCN1CCC(F)(F)C1)C(=C(C#N)C#N)N1CCC(N2CCCCC2)CC1` [Compound 169, ({N-[3-(3,3-difluoropyrrolidin-1-yl)propyl]-N-methylamino}(4-piperidinopiperidino)methylene)malononitrile] was tested, and the inhibition at 1 µM was at least 80%.
`N#CC(C#N)=C1N(CCCN2CC=CCC2)CCN1CCCN1CCCCC1` [Compound 90, {1-[3-(1,2,3,6-Tetrahydropyridin-1-yl)propyl]-3-(3-piperidinopropyl)imidazolidin-2-ylidene}malononitrile] showed an inhibition at 1 µM of at least 80%.
For `CC(C)N1CCC(N2CCN(CCN3CCC[C@@H]3C)C2=C(C#N)C#N)CC1` [Compound 210, {1-(1-Isopropylpiperidin-4-yl)-3-[2-((S)-2-methylpyrrolidin-1-yl)ethyl]imidazolidin-2-ylidene}malononitrile], the inhibition at 1 µM was at least 80%.
For `CC1CCCN1CC1CCN(C(NCCN2CCCCC2)=C(C#N)C#N)CC1` (stereo not shown) [Compound 148, {[4-(2-Methylpyrrolidin-1-ylmethyl)piperidino](2-piperidinoethylamino)methylene}malononitrile], the inhibition at 1 µM was at least 80%.
`N#CC(C#N)=C1N(CCCN2CCCCC2)CCN1CCN1CCc2ccccc2C1` [Compound 53, {1-[2-(1,2,3,4-Tetrahydroisoquinolin-2-yl)ethyl]-3-(3-piperidinopropyl)imidazolidin-2-ylidene}malononitrile] showed an inhibition at 1 µM of at least 80%.
With `N#CCN1CCC(N2CCN(CCCN3CCCCC3)C2=C(C#N)C#N)CC1` [Compound 214, [1-(1-Cyanomethylpiperidin-4-yl)-3-(3-piperidinopropyl)imidazolidin-2-ylidene]malononitrile] the inhibition at 1 µM was at least 80%.
